The values below come from patent publication US8299048B2, “Hexahydrocyclopentyl[f]indazole sulfonamides and derivatives thereof as selective glucocorticoid receptor modulators” (Merck Sharp & Dohme Corp., priority 2008, dated 2012).

The target in assay [1] is T1, human GR (Homo sapiens, UniProt P04150).
T1 sequence (P04150 1-777): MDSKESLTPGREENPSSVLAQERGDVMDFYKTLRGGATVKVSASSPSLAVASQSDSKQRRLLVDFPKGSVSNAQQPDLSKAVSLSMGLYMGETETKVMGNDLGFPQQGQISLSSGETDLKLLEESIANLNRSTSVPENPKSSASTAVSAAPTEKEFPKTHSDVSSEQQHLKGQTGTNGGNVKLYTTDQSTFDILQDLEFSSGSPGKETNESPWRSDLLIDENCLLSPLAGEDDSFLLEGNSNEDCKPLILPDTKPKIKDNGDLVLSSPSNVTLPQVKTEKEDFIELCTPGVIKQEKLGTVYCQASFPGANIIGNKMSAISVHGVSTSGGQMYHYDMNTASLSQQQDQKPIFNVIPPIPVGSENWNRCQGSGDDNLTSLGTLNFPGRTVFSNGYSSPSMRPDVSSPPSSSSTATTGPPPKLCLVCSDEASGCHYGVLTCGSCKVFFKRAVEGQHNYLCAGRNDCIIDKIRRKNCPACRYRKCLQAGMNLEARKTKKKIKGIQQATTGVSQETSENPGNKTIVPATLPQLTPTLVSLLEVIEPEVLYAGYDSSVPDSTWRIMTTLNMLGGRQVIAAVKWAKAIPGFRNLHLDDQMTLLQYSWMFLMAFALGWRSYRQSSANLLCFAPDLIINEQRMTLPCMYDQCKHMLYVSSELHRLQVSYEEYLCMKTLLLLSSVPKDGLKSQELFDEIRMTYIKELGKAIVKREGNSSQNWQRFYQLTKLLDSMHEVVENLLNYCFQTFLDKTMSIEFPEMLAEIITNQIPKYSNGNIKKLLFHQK
Put plainly: Trans-Activation Modulation of Glucocorticoid Receptor (GRAMMER), MMTV-LUC reporter, agonist mode. The format is cell-based. The arrangement: endogenous in cells. Conditions: for Emax: A549, A549 cells, maximum activity, read-out: Transactivation A549 Cells GRAMMER Emax; for EC50: A549 cells, inflection point, read-out: Transactivation A549 Cells GRAMMER IP. Put shortly:
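Readout is luciferase from a modified MMTV LTR promoter after 24 h compound exposure alongside 10 nM dexamethasone (100% activity reference), DMSO ≤1%.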

Assay [2] has as its target T1, human GR. In words: Transrepression Assay (GITAR), TNFα-β-lactamase reporter in U937 cells. Type of assay: cell-based. The arrangement: U937 cells contain an endogenous glucocorticoid receptor (GR); endogenous in cells; host or cells: U937 cells stably transfected with the TNF-alpha promoter/beta-lactamase reporter. Conditions: for GITAR > GRAMM % SEP: GITAR Emax minus GRAMMER Emax; for EC50: U937 cells, inflection point, read-out: Transrepression U937 Cells GITAR IP. Put shortly: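 Stable TNF-α-promoter/β-lactamase U937 line, endogenous GR; 50,000 cells/well. Cmpd 30–45 min 37 °C → PMA 5 ng/ml + LPS 100 ng/ml final, 37 °C ~18 hr → CCF2-AM 70–90 min RT. 100 nM dex = 100%.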

Setting [3] is: U-937, U937 cells, maximum activity, read-out: Transrepression U937 Cells GITAR Emax.
[4] abbreviates: U-937, activity repressed by 100 nM dexamethasone alone set as 100%, read-out: maximal activity in the transrepression (GITAR) assay.

Some results are limits rather than exact numbers.

Take `Cc1noc(C)c1S(=O)(=O)N(CCO)C[C@H]1CCC2=Cc3c(cnn3-c3ccc(F)cc3)C[C@@]21C` [Example 71, N-{[(4αR,5S)-1-(4-fluorophenyl)-4α-methyl-1,4,4α,5,6,7-hexahydrocyclopenta[f]indazol-5-yl]methyl}-N-(2-hydroxyethyl)-3,5-dimethylisoxazole-4-sulfonamide]: the Emax on human GR [1] is 63.1%; on human GR [2] (setting [3]), 82.3%; at human GR [2] (setting [4]), more than 5%. In addition, the results for the EC50 at human GR [1] and on human GR [2] were 257 nM and 302 nM, respectively. Further, the “GITAR > GRAMM % SEP” value on human GR [2] is on record as 19.2%.
In the case of `C[C@]12Cc3cnn(-c4ccc(F)cc4)c3C=C1CC[C@@H]2CN(CCO)S(=O)(=O)c1cc(F)cc(F)c1` [Example 72], the Emax at human GR [1] was 35.3%; on human GR [2] (setting [3]) it was 60.8%; at human GR [2] (setting [4]), more than 5%. The EC50 on human GR [1] was 475 nM; at human GR [2] it was 486 nM. Besides, on human GR [2], the “GITAR > GRAMM % SEP” value is on record as 25.5%.
As for `COC(=O)c1ccccc1S(=O)(=O)N(CCO)C[C@H]1CCC2=Cc3c(cnn3-c3ccc(F)cc3)C[C@@]21C` [Example 73, methyl 2-{[{[(4αR,5S)-1-(4-fluorophenyl)-4α-methyl-1,4,4α,5,6,7-hexahydrocyclopenta[f]indazol-5-yl]methyl}(2-hydroxyethyl)amino]sulfonyl}benzoate], the Emax on human GR [1] was 25.4%; on human GR [2] (setting [3]) it was 81.4%; at human GR [2] (setting [4]) it was more than 5%. In addition, the EC50 on human GR [1] turned out to be 364 nM; on human GR [2], 363 nM. Moreover, the “GITAR > GRAMM % SEP” value at human GR [2] turned out to be 56.0%.
In the case of `C[C@]12Cc3cnn(-c4ccc(F)cc4)c3C=C1CC[C@@H]2CN(CCO)S(=O)(=O)c1ccc(Oc2ccccn2)cc1` [Example 74, N-{[(4αR,5S)-1-(4-fluorophenyl)-4α-methyl-1,4,4α,5,6,7-hexahydrocyclopenta[f]indazol-5-yl]methyl}-N-(2-hydroxyethyl)-4-(pyridin-2-yloxy)benzenesulfonamide], the Emax is 34.1% on human GR [1], 44.1% at human GR [2] (setting [3]) and more than 5% on human GR [2] (setting [4]). The EC50 on human GR [1] is 1030 nM; at human GR [2], 1140 nM. Besides, the “GITAR > GRAMM % SEP” value at human GR [2] worked out at 9.9%.
Consider `C[C@]12Cc3cnn(-c4ccc(F)cc4)c3C=C1CC[C@@H]2CN(CCO)S(=O)(=O)Cc1ccccc1` [Example 75, N-{[(4αR,5S)-1-(4-fluorophenyl)-4α-methyl-1,4,4α,5,6,7-hexahydrocyclopenta[f]indazol-5-yl]methyl}-N-(2-hydroxyethyl)-1-phenylmethanesulfonamide], for which the Emax at human GR [1] is 14.4%; at human GR [2] (setting [3]), 28.8%; at human GR [2] (setting [4]) it was more than 5%. In addition, the EC50 on human GR [1] stood at 450 nM; at human GR [2] it was 473 nM. Moreover, on human GR [2], the “GITAR > GRAMM % SEP” value worked out at 14.4%.
With `CNC(=O)Nc1ccc(S(=O)(=O)N(CCO)C[C@H]2CCC3=Cc4c(cnn4-c4ccc(F)cc4)C[C@@]32C)c(Cl)c1` [Example 76, 2-chloro-N-{[(4αR,5S)-1-(4-fluorophenyl)-4α-methyl-1,4,4α,5,6,7-hexahydrocyclopenta[f]indazol-5-yl]methyl}-N-(2-hydroxyethyl)-4-{[(methylamino)carbonyl]amino}-benzenesulfonamide], the Emax at human GR [1] is 3.5%; on human GR [2] (setting [3]), 13%; on human GR [2] (setting [4]), more than 5%. In addition, the EC50 came out at 1960 nM on human GR [1] and 2110 nM on human GR [2]. In addition, the “GITAR > GRAMM % SEP” value on human GR [2] stood at 9.5%.
As for `Cc1ccccc1S(=O)(=O)N(CCO)C[C@H]1CCC2=Cc3c(cnn3-c3ccc(F)cc3)C[C@@]21C` [Example 77, N-{[(4αR,5S)-1-(4-fluorophenyl)-4α-methyl-1,4,4α,5,6,7-hexahydrocyclopenta[f]indazol-5-yl]methyl}-N-(2-hydroxyethyl)-2-methylbenzenesulfonamide], the Emax at human GR [1] was 17.9%; on human GR [2] (setting [3]) it was 43.6%; at human GR [2] (setting [4]), more than 5%. Further, the EC50 on human GR [1] is 901 nM; on human GR [2] it was 1130 nM. Also, the “GITAR > GRAMM % SEP” value on human GR [2] was 25.7%.
In the case of `C[C@]12Cc3cnn(-c4ccc(F)cc4)c3C=C1CC[C@@H]2CN(CCO)S(=O)(=O)c1ccccc1C#N` [Example 78, 2-cyano-N-{[(4αR,5S)-1-(4-fluorophenyl)-4α-methyl-1,4,4α,5,6,7-hexahydrocyclopenta[f]indazol-5-yl]methyl}-N-(2-hydroxyethyl)benzenesulfonamide], the results for the Emax on human GR [1], at human GR [2] (setting [3]) and at human GR [2] (setting [4]) were 50.6%, 66.5% and more than 5%, respectively. For the same molecule, the EC50 at human GR [1] came to 652 nM; at human GR [2], 883 nM. At human GR [2], the “GITAR > GRAMM % SEP” value came out at 15.9%.
`C[C@]12Cc3cnn(-c4ccc(F)cc4)c3C=C1CC[C@@H]2CN(CCO)S(=O)(=O)c1ccc(Oc2ccccc2)cc1` [Example 79, N-{[(4αR,5S)-1-(4-fluorophenyl)-4α-methyl-1,4,4α,5,6,7-hexahydrocyclopenta[f]indazol-5-yl]methyl}-N-(2-hydroxyethyl)-4-phenoxybenzenesulfonamide]: the figures for the Emax at human GR [1], on human GR [2] (setting [3]) and at human GR [2] (setting [4]) were 7.5%, 71.8% and more than 5%, respectively. For the same molecule, the results for the EC50 on human GR [1] and at human GR [2] were 1320 nM and 1950 nM, respectively. For the same molecule, the “GITAR > GRAMM % SEP” value at human GR [2] was 64.3%.
In the case of `C[C@]12Cc3cnn(-c4ccc(F)cc4)c3C=C1CC[C@@H]2CN(CCO)S(=O)(=O)c1cc(C(F)(F)F)ccc1Cl` [Example 80, 2-chloro-N-{[(4αR,5S)-1-(4-fluorophenyl)-4α-methyl-1,4,4α,5,6,7-hexahydrocyclopenta[f]indazol-5-yl]methyl}-N-(2-hydroxyethyl)-5-(trifluoromethyl)benzenesulfonamide], the figures for the Emax at human GR [1], on human GR [2] (setting [3]) and at human GR [2] (setting [4]) were 6%, 70% and more than 5%, respectively. Besides, the EC50 on human GR [1] was determined as 1140 nM; on human GR [2], 2580 nM. For the same molecule, the “GITAR > GRAMM % SEP” value on human GR [2] is 64.0%.
`C[C@]12Cc3cnn(-c4ccc(F)cc4)c3C=C1CC[C@@H]2CN(CCO)S(=O)(=O)c1ccccc1Cl` [Example 81, 2-chloro-N-{[(4αR,5S)-1-(4-fluorophenyl)-4α-methyl-1,4,4α,5,6,7-hexahydrocyclopenta[f]indazol-5-yl]methyl}-N-(2-hydroxyethyl)benzenesulfonamide]: the Emax at human GR [1] was 17.2%; at human GR [2] (setting [3]), 76.7%; on human GR [2] (setting [4]), more than 5%. Further, the EC50 came out at 461 nM at human GR [1] and 959 nM at human GR [2]. Moreover, the “GITAR > GRAMM % SEP” value at human GR [2] came out at 59.5%.
For the molecule `C[C@]12Cc3cnn(-c4ccc(F)cc4)c3C=C1CC[C@@H]2CN(CCO)S(=O)(=O)c1ccc(F)cc1F` [Example 82, 2,4-difluoro-N-{[(4αR,5S)-1-(4-fluorophenyl)-4α-methyl-1,4,4α,5,6,7-hexahydrocyclopenta[f]indazol-5-yl]methyl}-N-(2-hydroxyethyl)benzenesulfonamide], the Emax on human GR [1] was 61.1%; on human GR [2] (setting [3]) it was 90.2%; on human GR [2] (setting [4]) it was more than 5%. Moreover, the EC50 at human GR [1] came out at 287 nM; on human GR [2], 220 nM. Also, the “GITAR > GRAMM % SEP” value on human GR [2] was 29.1%.
Turning to `Cc1nn(C)c(Cl)c1S(=O)(=O)N(CCO)C[C@H]1CCC2=Cc3c(cnn3-c3ccc(F)cc3)C[C@@]21C` [Example 83, 5-chloro-N-{[(4αR,5S)-1-(4-fluorophenyl)-4α-methyl-1,4,4α,5,6,7-hexahydrocyclopenta[f]indazol-5-yl]methyl}-N-(2-hydroxyethyl)-1,3-dimethyl-1H-pyrazole-4-sulfonamide], the Emax was 6.9% on human GR [1], 59.5% at human GR [2] (setting [3]) and more than 5% at human GR [2] (setting [4]). The EC50 on human GR [1] amounted to 568 nM; at human GR [2] it was 1320 nM. The “GITAR > GRAMM % SEP” value on human GR [2] stood at 52.6%.
With `C[C@]12Cc3cnn(-c4ccc(F)cc4)c3C=C1CC[C@@H]2CN(CCO)S(=O)(=O)c1ccccc1-c1ccccc1` [Example 84, N-{[(4αR,5S)-1-(4-fluorophenyl)-4α-methyl-1,4,4α,5,6,7-hexahydrocyclopenta[f]indazol-5-yl]methyl}-N-(2-hydroxyethyl)biphenyl-2-sulfonamide], the Emax on human GR [1] is 19.7%; at human GR [2] (setting [3]) it was 86%; on human GR [2] (setting [4]), more than 5%. Also, the EC50 at human GR [1] was found to be 442 nM; at human GR [2], 799 nM. In addition, the “GITAR > GRAMM % SEP” value on human GR [2] is listed as 66.3%.
